For 4 compounds, CC50, IC50 and selectivity ratio results are on record in ChEMBL document CHEMBL5120906, “Oxalierpenes A and B, Unusual Indole-Diterpenoid Derivatives with Antiviral Activity from a Marine-Derived Strain of the Fungus Penicillium oxalicum” (J Nat Prod, 2022).

Data set [1] is described as follows: Cytotoxicity against dog MDCK cells assessed as reduction in cell viability. The data set is classed as toxicity, cell-based, Canis lupus familiaris.
The test system of a further data set is Influenza A virus. The data set can be described thus: Antiviral activity against Influenza A virus A/WSN/33(H1N1) infected in dog MDCK cells assessed as inhibition of virus-induced cytopathic effect by CPE inhibition assay. The data set is classed as functional, organism-based. On the technique in general: Cytopathic effects are the visible damage that an infection or toxin causes in cultured cells.

The nature of data set [2]: Therapeutic index, ratio of CC50 for Cytotoxicity against dog MDCK cells to IC50 for Antiviral activity against Influenza A virus A/WSN/33(H1N1) infected in dog MDCK cells. The data set is classed as toxicity, cell-based. Conditions: read-out: Ratio CC50/IC50.
Data set [3] deals with Respiratory syncytial virus. The data set can be described thus: Antiviral activity against Respiratory syncytial virus infected in human HEp-2 cells assessed as inhibition of virus-induced cytopathic effect by CPE inhibition assay. The data set is classed as functional, organism-based.
A short description of data set [4]: Therapeutic index, ratio of CC50 for Cytotoxicity against human HEp-2 cells to IC50 for Antiviral activity against Respiratory syncytial virus infected in human HEp-2 cells. The data set is classed as toxicity, cell-based. Conditions: read-out: Ratio CC50/IC50.
The nature of data set [5]: Cytotoxicity against human HEp-2 cells assessed as reduction in cell viability. The data set is classed as toxicity, cell-based.

SMILES strings stand for the structures. Some results are limits rather than exact numbers.

The term CC50 denotes the concentration at which the toxic effect on the cells reaches its halfway point. The IC50 is the concentration that gives 50% inhibition. `CC1(C)C=C2C(=Cc3cc4c5c([nH]c4cc32)[C@@]2(C)[C@@H](CC[C@@]34O[C@@]6(O)[C@H](O)C(C)(C)O[C@H]6[C@@H]3C(=O)CC[C@]24C)C5)C(C)(C)O1`: the CC50 is 13 µM in data set [1] and 15 µM in data set [5]. The IC50 with Influenza A virus turned out to be 3.7 µM; in data set [3], 2.8 µM. The selectivity ratio was determined as 3.5 in data set [2] and 5.5 in data set [4].
Turning to `NC(=O)c1nc(F)c[nH]c1=O` [FAVIPIRAVIR], the CC50 in data set [1] was greater than 1000 µM. In data set [2], the selectivity ratio is greater than 28.
Consider `CC1(C)C=C2C(=Cc3cc4c5c([nH]c4cc32)[C@@]2(C)[C@@H](CCC3=C([C@@H]4OC(C)(C)[C@@H](O)C4=O)C(=O)CC[C@@]32C)C5)C(C)(C)O1`, for which the values for the CC50 in data set [1] and in data set [5] were 27 µM and 31 µM, respectively. For the same compound, the figures for the IC50 (in the data set with Influenza A virus; in data set [3]) were 9.4 µM and 6.7 µM, respectively. For the same compound, the selectivity ratio in data set [2] was found to be 2.8; in data set [4], 4.6.
Consider `NC(=O)c1ncn([C@@H]2O[C@H](CO)[C@@H](O)[C@H]2O)n1` [RIBAVIRIN], for which, in data set [3], the IC50 was found to be 19 µM. Further, the selectivity ratio in data set [4] is greater than 54. The CC50 in data set [5] is greater than 1000 µM.
